Values quoted from earlier work, collected in patent publication US4380639A, “Substituted 1,2,5-thiadiazole derivatives” (Bristol-Myers Company, priority 1981, dated 1983).

Experiments:
peptic ulcer disease = conditions: clinical evaluation, Gray et al., Lancet 1977
[1] = in vivo

Compound | therapeutic effectiveness in peptic ulcer disease (peptic ulcer disease) | H2 -antagonist potency/effectiveness relative to comparator (H2 -receptor) | oral absorption [1]
CNC(=NC#N)NCCSCc1[nH]cnc1C [Cimetidine] | effective therapeutic agent in the treatment of peptic ulcer disease | as effective an H2 -antagonist as metiamide | 
CNC(=S)NCCSCc1[nH]cnc1C [Metiamide] |  | more potent than burimamide | 
CNC(=S)NCCCCc1cnc[nH]1 [Burimamide] |  |  | oral absorption is poor
